This note sets out measurements from article PMC7457178 (Biomolecules & Therapeutics, 2020).

The target of data set [1] is T1, GRK2 (Homo sapiens, UniProt P25098).
T1 sequence (P25098 1-689): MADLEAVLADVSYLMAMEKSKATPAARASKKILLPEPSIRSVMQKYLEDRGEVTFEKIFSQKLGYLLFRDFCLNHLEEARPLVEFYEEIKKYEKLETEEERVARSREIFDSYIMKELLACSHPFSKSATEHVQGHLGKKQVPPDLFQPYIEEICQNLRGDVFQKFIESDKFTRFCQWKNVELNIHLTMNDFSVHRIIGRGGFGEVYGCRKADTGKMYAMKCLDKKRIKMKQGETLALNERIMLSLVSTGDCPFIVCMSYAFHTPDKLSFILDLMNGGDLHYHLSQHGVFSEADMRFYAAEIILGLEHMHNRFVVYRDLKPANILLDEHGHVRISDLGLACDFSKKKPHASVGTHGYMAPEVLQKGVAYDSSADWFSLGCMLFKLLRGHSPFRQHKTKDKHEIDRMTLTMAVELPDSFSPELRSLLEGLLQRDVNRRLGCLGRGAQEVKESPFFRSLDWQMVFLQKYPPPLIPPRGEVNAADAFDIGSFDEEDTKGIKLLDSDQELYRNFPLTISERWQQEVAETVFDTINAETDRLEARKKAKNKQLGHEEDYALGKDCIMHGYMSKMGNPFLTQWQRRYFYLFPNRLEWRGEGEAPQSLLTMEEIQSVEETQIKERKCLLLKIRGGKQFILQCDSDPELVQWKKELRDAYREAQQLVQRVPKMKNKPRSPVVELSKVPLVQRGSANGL
Put plainly: Inhibitory activity against GRK2. The format is biochemical. The note with it: read-out: Inhibition of GRK2.

Data set [2] is described as follows: in vivo. The note with it: Sprague-Dawley (S.D.), rat, iv, 10 mg/kg, Kp (ratio of tissue to plasma concentration), 10 mg/kg i.v.
The nature of data set [3]: Cytotoxicity, HFL-1. The note with it: human, HFL-1 cells. The format is cell-based.
In data set [4] the test system is HDAC5 phosphorylation. Kind of data set: Angiotensin II-induced HDAC5 phosphorylation in neonatal cardiomyocytes. The note with it: 0.1 µM angiotensin II.
Data set [5] can be described thus: Pharmacokinetic study in rats. The data set is classed as in vivo. The note with it: rat.
Data set [6] deals with hERG channel (Homo sapiens, UniProt Q12809). Put plainly: Patch clamp for the hERG channel. The data set is classed as cell-based. For orientation: In patch-clamp work, channel activity is measured electrically.
Data set [7] concerns C57BL/6 mice. Kind of data set: Transverse aortic constriction. The note with it: 30 mg/kg daily oral, 14 days.
Data set [8] deals with neonatal rat cardiomyocytes. Kind of data set: Angiotensin II-induced cellular hypertrophy in neonatal cardiomyocytes. The note with it: 0.1 µM angiotensin II, 4 days.
Data set [9] is described as follows: Cytotoxicity, VERO. The note with it: African green monkey, VERO cells. The data set is classed as cell-based.
Data set [10] can be described thus: Cytotoxicity, NIH3T3. The data set is classed as cell-based. The note with it: mouse, NIH3T3 cells.
Data set [11] concerns S.D. rats. Put plainly: Post-MI chronic heart failure model. The data set is classed as in vivo, rat. The note with it: for Fractional shortening / Left ventricular ejection fraction: 12 weeks after coronary artery ligation.
Data set [12] is described as follows: Cytotoxicity, L929. The format is cell-based. The note with it: mouse, L929 cells.
[13] abbreviates: Sprague-Dawley (S.D.), plasma, iv, 5 mg/kg.
Where [14] appears, read: Sprague-Dawley (S.D.), plasma, po, 300 mg/kg.
[15] abbreviates: 30 mg/kg/day p.o., 12 weeks after MI.

Sequence of hERG channel (Q12809 whole entry): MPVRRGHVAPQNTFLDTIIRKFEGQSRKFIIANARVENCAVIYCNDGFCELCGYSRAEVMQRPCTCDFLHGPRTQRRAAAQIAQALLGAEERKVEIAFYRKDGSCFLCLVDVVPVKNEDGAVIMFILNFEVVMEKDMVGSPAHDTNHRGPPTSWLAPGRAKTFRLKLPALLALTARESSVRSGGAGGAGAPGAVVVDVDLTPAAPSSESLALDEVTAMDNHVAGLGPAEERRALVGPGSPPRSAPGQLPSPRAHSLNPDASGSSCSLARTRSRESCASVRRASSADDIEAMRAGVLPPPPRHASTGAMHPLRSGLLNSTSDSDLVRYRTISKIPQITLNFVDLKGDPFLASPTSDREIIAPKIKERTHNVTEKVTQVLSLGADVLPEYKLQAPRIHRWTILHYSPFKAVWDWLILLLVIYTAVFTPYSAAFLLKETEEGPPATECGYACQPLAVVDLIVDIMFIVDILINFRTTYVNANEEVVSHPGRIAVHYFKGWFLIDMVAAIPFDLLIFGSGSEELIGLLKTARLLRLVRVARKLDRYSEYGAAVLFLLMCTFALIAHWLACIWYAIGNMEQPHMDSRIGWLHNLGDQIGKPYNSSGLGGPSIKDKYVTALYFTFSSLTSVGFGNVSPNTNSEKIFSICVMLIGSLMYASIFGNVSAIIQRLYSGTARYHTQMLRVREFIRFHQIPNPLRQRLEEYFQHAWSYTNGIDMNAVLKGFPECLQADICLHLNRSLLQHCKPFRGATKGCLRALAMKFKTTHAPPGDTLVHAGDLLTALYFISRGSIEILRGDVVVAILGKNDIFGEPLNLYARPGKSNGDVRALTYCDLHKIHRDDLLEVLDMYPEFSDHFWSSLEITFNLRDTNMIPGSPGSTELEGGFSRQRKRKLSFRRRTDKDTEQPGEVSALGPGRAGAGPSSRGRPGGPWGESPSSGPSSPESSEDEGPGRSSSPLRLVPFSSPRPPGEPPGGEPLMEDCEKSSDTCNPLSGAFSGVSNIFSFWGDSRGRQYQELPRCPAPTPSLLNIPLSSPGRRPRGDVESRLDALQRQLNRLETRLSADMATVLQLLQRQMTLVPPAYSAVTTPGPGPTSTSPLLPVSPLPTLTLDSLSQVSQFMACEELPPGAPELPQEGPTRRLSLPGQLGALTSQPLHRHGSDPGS

One may read the inhibition as the change of the read-out against control, counted positive when it falls. One may read the Kp as the ratio of the level in a tissue or fluid to that in plasma or blood. What is called EC50 is the concentration that produces a half-maximal response. A higher EC50 goes with a less potent agent. A word on the AUC(0-inf): it is the area under the concentration-time curve extrapolated to infinity. Read a high AUC(0-inf) as more exposure. The Vd is the apparent volume that relates the amount in the body to the concentration in plasma or blood. As usually defined, the clearance is the volume of plasma or blood freed of the substance per unit of time. Read a low clearance as inefficient removal. What is called half-life is the time in which the quantity being followed falls by half. Higher therefore signals slow decline. In general, Cmax refers to the highest concentration seen after dosing. The term Tmax denotes the time at which the peak concentration occurs. In general, IC50 refers to the midpoint of a concentration-inhibition curve. Low values mean inhibition by little substance, high ones a need for much substance. Take `NCCCNCCCCNCCCNc1cc2nc(-c3ccccc3Cl)[nH]c(=O)c2cc1F` [KR-39038, 7-((3-((4-((3-aminopropyl)amino)butyl)amino)propyl)amino)-2-(2-chlorophenyl)-6-fluoroquinazolin-4(3H)-one]: the inhibition at 10 µM in data set [1] was found to be 5.9%. The Kp at 4 h was found to be 11.3 in data set [2] (brain); 16.9 in data set [2] (heart); 26.3 in data set [2] (kidney); 10.4 in [2] (liver); 2.7 in data set [2] (lung); 1 in data set [2] (plasma). The EC50 was more than 100 µM in data set [3], more than 100 µM in data set [9], 61.1 µM in [10] and 89.9 µM in data set [12]. Moreover, the “Effect on angiotensin II-induced phosphorylation of HDAC5” value in data set [4] is “effectively downregulated”. The total exposure AUC(0-inf) in data set [5] (setting [13]) was 3400 ± 1000 ng·h/mL; in [5] (Sprague-Dawley (S.D.), plasma, iv, 10 mg/kg), 3400 ± 1000 ng·h/mL; in data set [5] (setting [14]), 8900 ± 5000 ng·h/mL. The compound further showed a Vd in data set [5] (setting [13]) of 1.2 ± 0.2 L/kg. The clearance in data set [5] (setting [13]) is 26.7 mL/min/kg. The results for the half-life in [5] (setting [13]) and in data set [5] (setting [14]) were 42 ± 2.4 min and 138 ± 174 min, respectively. Also, the Cmax in data set [5] (setting [14]) turned out to be 5200 ± 2800 ng/mL. In addition, the Tmax in data set [5] (setting [14]) amounted to 42 ± 12 min. The “F (oral bioavailability)” value in [5] (300 mg/kg p.o., 300 mg/kg) was 4.3 ± 2.4%. Besides, the IC50 in data set [6] was more than 50 µM. Besides, the “Reduction in the left ventricular weight” value in data set [7] is 43%. Further, the “Effect on angiotensin II-induced cellular hypertrophy (cell surface area)” value in data set [8] is “concentration-dependently inhibited”. Besides, the Survival rate is on record as 80% in [11] (10 mg/kg/day p.o., 12 weeks after MI) and 73% in [11] (setting [15]). Further, the results for the Fractional shortening in data set [11] (10 mg/kg/day p.o.) and in data set [11] (30 mg/kg/day p.o.) were 23.4 ± 1.6% and 22.6 ± 1.3%, respectively. The “Left ventricular ejection fraction” value in data set [11] (10 mg/kg/day p.o.) was determined as 44.3 ± 2.6%; in data set [11] (30 mg/kg/day p.o.), 43.4 ± 2.3%. For the same compound, the Interstitial fibrosis in data set [11] (setting [15]) was found to be 16.3 ± 1.6%. The Myocyte cross-sectional area in data set [11] (setting [15]) is listed as 420.1 ± 21.2 µm^2.
Take `CC(C)c1ccc2oc3nc(N)c(C(=O)O)cc3c(=O)c2c1` [amlexanox, reference compound]: in data set [4], the “Effect on angiotensin II-induced phosphorylation of HDAC5” value is on record as “effectively downregulated”. Besides, in data set [8], the “Effect on angiotensin II-induced cellular hypertrophy (cell surface area)” value is on record as “concentration-dependently inhibited”.
In [11] (setting [15]), `C[C@H](CS)C(=O)N1CCC[C@H]1C(=O)O` [captopril, reference compound] had a Survival rate of 67%.
